From BindingDB's records for doi:10.1021/jm801503n (Burnham Institute For Medical Research, 2009)

Tests used:
[1] = molecular target: T1, Mitogen-activated protein kinase 8 (Homo sapiens, UniProt P45983); test: DELFIA Assay (Dissociation Enhanced Lanthanide Fluoro-Immuno Assay)
[2] = molecular target: T1, Mitogen-activated protein kinase 8; test: In Vitro Kinase Assay (LanthaScreen Kinase Assay)
Description: Compounds were tested for their ability to inhibit JNK1 phosphorylation of ATF2 in the Time-Resolved Fluorescence Resonance Energy Transfer (TR-FRET) based LanthaScreen kinase assay (Invitrogen). The signal was measured at 520/495 nm emission ratio on a fluorescence plate reader (Victor 2, Perkin-Elmer).

T1 sequence (P45983 whole entry): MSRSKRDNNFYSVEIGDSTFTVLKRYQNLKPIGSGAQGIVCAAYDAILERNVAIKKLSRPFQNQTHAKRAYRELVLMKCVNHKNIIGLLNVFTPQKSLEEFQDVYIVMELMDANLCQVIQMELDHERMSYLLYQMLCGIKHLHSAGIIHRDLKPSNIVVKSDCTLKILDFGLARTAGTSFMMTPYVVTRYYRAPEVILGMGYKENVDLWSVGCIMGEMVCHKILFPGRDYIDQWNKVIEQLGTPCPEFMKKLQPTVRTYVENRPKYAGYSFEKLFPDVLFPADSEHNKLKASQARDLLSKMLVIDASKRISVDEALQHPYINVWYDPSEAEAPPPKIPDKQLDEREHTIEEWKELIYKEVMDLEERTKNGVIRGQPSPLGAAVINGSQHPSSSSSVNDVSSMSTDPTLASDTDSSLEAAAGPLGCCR

SMILES | IC50 [1] | IC50 [2] | IC50 ([1]; pH 7.8, 0 °C)
O=[N+]([O-])c1cnc(Sc2nnc(Sc3ncc([N+](=O)[O-])s3)s2)s1 [dithioether 1,3,4-thiadiazole, 8f] | 187 nM | 0.8 µM | 
COc1cccc(-n2c(O)nnc2Sc2ncc([N+](=O)[O-])s2)c1 [triazole, 3m] | 16000 nM |  | 118 nM
O=[N+]([O-])c1cnc(Sc2nnc(O)n2-c2cccc3ccccc23)s1 [triazole, 3g] | 2700 nM |  | 48 nM
O=[N+]([O-])c1cnc(Sc2nnc(-c3ccncc3)n2-c2ccccc2)s1 [triazole, 7f] | 3100 nM |  | 122 nM
O=[N+]([O-])c1cnc(Sc2nnc(O)n2-c2cccc(C(F)(F)F)c2)s1 [triazole, 3o] | 2900 nM |  | 160 nM
Nc1nnc(Sc2ncc([N+](=O)[O-])s2)s1 [2-amino-1,3,4-thiadiazole, 9] | 239 nM | 0.7 µM | 
O=c1[nH]nc(Sc2ncc([N+](=O)[O-])s2)n1-c1ccc([N+](=O)[O-])cc1 [triazole, 3j] | 400 nM |  | 86 nM
COc1ccc(-n2c(Sc3ncc([N+](=O)[O-])s3)n[nH]c2=O)cc1OC [triazole, 3f] | 1000 nM |  | 43 nM
CC(C)(C)c1ccc(-n2c(O)nnc2Sc2ncc([N+](=O)[O-])s2)cc1 [triazole, 3a] | 39000 nM |  | 95 nM
c1ccc(CSc2nnc(SCc3ccccc3)s2)cc1 [dithioether 1,3,4-thiadiazole, 8a] |  | > 100 µM | 
Cn1cccc1-c1nnc(Sc2ncc([N+](=O)[O-])s2)n1-c1ccc(Cl)cc1Cl [triazole, 7b] | 2000 nM |  | 83 nM
O=c1[nH]nc(Sc2ncc([N+](=O)[O-])s2)n1-c1ccc(F)cc1 [triazole, 3c] | 1800 nM |  | 225 nM
O=C(O)c1cnc(Sc2nnc(Sc3ncc(C(=O)O)s3)s2)s1 [dithioether 1,3,4-thiadiazole, 8g] | 100 nM | 84 µM | 
O=[N+]([O-])c1cnc(Sc2nnc(O)n2-c2ccc(F)c(F)c2)s1 [triazole, 3k] | 6600 nM |  | 
Fc1ccc(CSc2nnc(SCc3ccc(F)cc3)s2)cc1 [dithioether 1,3,4-thiadiazole, 8b] |  | > 100 µM | 
O=c1[nH]nc(Sc2ncc([N+](=O)[O-])s2)n1-c1ccc(OC(F)(F)F)cc1 [triazole, 3i] | 2000 nM |  | 130 nM
O=[N+]([O-])c1cnc(Sc2nnc(-c3cccc4ccccc34)n2Cc2ccco2)s1 [triazole, 7d] | 13600 nM |  | 57 nM
COc1ccc(CSc2nnc(SCc3ccc(OC)cc3)s2)cc1 [dithioether 1,3,4-thiadiazole, 8c] |  | > 100 µM | 
O=[N+]([O-])c1cnc(Sc2nnc(O)n2C2CCCCC2)s1 [triazole, 3q] | 25000 nM |  | 56 nM
COc1cc(OC)cc(-n2c(Sc3ncc([N+](=O)[O-])s3)n[nH]c2=O)c1 [triazole, 3e] | 4300 nM |  | 105 nM
O=C(Nc1nnc(Sc2ncc([N+](=O)[O-])s2)s1)c1ccc(F)cc1 [2-amino-1,3,4-thiadiazole, 10] |  | 84 µM | 
O=[N+]([O-])c1cnc(Sc2nnc(O)n2-c2ccc(C(F)(F)F)cc2)s1 [triazole, 3p] | 3000 nM |  | 75 nM
O=[N+]([O-])c1cccc(CSc2nnc(SCc3cccc([N+](=O)[O-])c3)s2)c1 [dithioether 1,3,4-thiadiazole, 8d] |  | > 100 µM | 
O=c1[nH]nc(Sc2ncc([N+](=O)[O-])s2)n1-c1cccc(F)c1 [triazole, 3l] | 84000 nM |  | 626 nM
O=[N+]([O-])c1ccc(CSc2nnc(SCc3ccc([N+](=O)[O-])cc3)s2)cc1 [dithioether 1,3,4-thiadiazole, 8e] |  | > 100 µM | 
COc1ccc(OC)c(-n2c(Sc3ncc([N+](=O)[O-])s3)n[nH]c2=O)c1 [triazole, 3h] | 2400 nM |  | 85 nM
Cn1c(Cc2nc(-c3cnccn3)[n-][o+]2)nnc1Sc1ncc([N+](=O)[O-])s1 [triazole, 7g] | 100000 nM |  | 131 nM
